Series [1] concerns Influenza strain A549 A/WSN/33 (H1N1). Description: microbe, parasite or virus in culture. Type of series: cell-based. The settings on record: Influenza A virus, A549, 20 h, A549 cells, influenza A/WSN/33 (H1N1), 20 hours incubation; read-out: A549_A(H1N1) EC50.
A short description of series [2]: in vitro. To be noted: human, CC50, uninfected A549 cells, CellTiter-Glo.

pEC50: −log10 of the molar value. A value given as a limit tells only on which side of the number the result lay.

Consider `O=C1c2c(O)c(=O)ccn2N2CN1CCCCOc1c(ccc(F)c1F)[C@@H]2c1ccccc1` (single isomer, unassigned) [Compound 115B, (18*S)-3,4-difluoro-12-hydroxy-18-phenyl-6,7,8,9-tetrahydro-18H-10,17-methanobenzo[b]pyrido[1,2-f][1]oxa[5,6,9]triazacyclotridecine-11,13-dione], for which the pEC50 in series [1] is 8.36. This molecule registered a CC50 in series [2] above 200 nM.
On to `COC[C@H]1/C=C/COc2c(ccc(F)c2F)[C@H](c2ccccc2)N2CN1C(=O)c1c(O)c(=O)ccn12` (single isomer, unassigned) [Compound 153AB, (9*R,18*S,*E)-3,4-difluoro-12-hydroxy-9-(methoxymethyl)-18-phenyl-6,9-dihydro-18H-10,17-methanobenzo[b]pyrido[1,2-f][1]oxa[5,6,9]triazacyclotridecine-11,13-dione], for which, in series [1], the pEC50 was below 7.30. In series [2], this molecule registered a CC50 above 100 nM.
Taken in the same sequence, the figures for `Cc1ccccc1[C@@H]1c2ccc(F)c(F)c2OC/C=C\CN2CN1n1ccc(=O)c(O)c1C2=O` (single isomer, unassigned) [Compound 155A, (18*R,*Z)-3,4-difluoro-12-hydroxy-18-(o-tolyl)-6,9-dihydro-18H-10,17-methanobenzo[b]pyrido[1,2-f][1]oxa[5,6,9]triazacyclotridecine-11,13-dione] were 8.92 and above 100 nM.
For `C[C@@H]1/C=C/COc2ccccc2[C@@H](c2ccccc2)N2CN1C(=O)c1c(O)c(=O)ccn12` (single isomer, unassigned) [Compound 29AA, (9*R, 18*R, E)-12-hydroxy-9-methyl-18-phenyl-6,9-dihydro-18H-10,17-methanobenzo[b]pyrido[1,2-f][1]oxa[5,6,9]triazacyclotridecine-11,13-dione], in series [1], the negative logarithm of the EC50 (pEC50) was below 5.52. The CC50 in series [2] is above 2000 nM.
`O=C1c2c(O)c(=O)ccn2N2CN1C/C=C\COc1ccc(F)cc1[C@H]2c1cccc(F)c1` (single isomer, unassigned) [Compound 25A, (18*R,Z)-2-fluoro-18-(3-fluorophenyl)-12-hydroxy-6,9-dihydro-18H-10,17-methanobenzo[b]pyrido[1,2-f][1]oxa[5,6,9]triazacyclotridecine-11,13-dione]: the pEC50 in series [1] was 5.01. In series [2], the CC50 is above 2000 nM.
As for `O=C1c2c(O)c(=O)ccn2N2CN1C1(/C=C/COc3cc(F)c(F)c4c3[C@@H]2c2ccccc2SC4)CCC1` (single isomer, unassigned) [Compound 159A, (17a′*R,*E)-24′,25′-difluoro-12′-hydroxy-2′,17a′-dihydro-6′H-spiro[cyclobutane-1,9′-[3,4](epiprop[1]en[1]yl[3]ylidene)[10,17]methanobenzo[6,7]thiepino[4,5-c]pyrido[1,2-f][1]oxa[5,6,9]triazacyclotridecine]-11′,13′-dione], in series [1], the pEC50 is below 7.30. Besides, in series [2], the CC50 was above 100 nM.
With `O=C1c2c(O)c(=O)ccn2N2CN1C1(/C=C/COc3c(ccc(F)c3F)[C@H]2c2ccccc2)CCC1` [Compound 146A, (18′R,E)-3′,4′-difluoro-12′-hydroxy-18′-phenyl-6′H,18′H-spiro[cyclobutane-1,9′-[10,17]methanobenzo[b]pyrido[1,2-f][1]oxa[5,6,9]triazacyclotridecine]-11′,13′-dione], the pEC50 in series [1] is 9.19. This molecule also yielded a CC50 in series [2] above 100 nM.
The like results for `C[C@@H]1/C=C/COc2c(ccc(F)c2F)[C@@H](c2ccccc2)N2CN1C(=O)c1c(O)c(=O)ccn12` (single isomer, unassigned) [Compound 148AA, (9*R,18*R,*E)-3,4-difluoro-12-hydroxy-9-methyl-18-phenyl-6,9-dihydro-18H-10,17-methanobenzo[b]pyrido[1,2-f][1]oxa[5,6,9]triazacyclotridecine-11,13-dione] were, in that order, 8.80 and above 50 nM.
Turning to `O=C1c2c(O)c(=O)ccn2N2CN1C/C=C\COc1c(F)cccc1[C@@H]2c1cccc(F)n1` (single isomer, unassigned) [Compound 104A, (18*R,*Z)-4-fluoro-18-(6-fluoropyridin-2-yl)-12-hydroxy-6,9-dihydro-18H-10,17-methanobenzo[b]pyrido[1,2-f][1]oxa[5,6,9]triazacyclotridecine-11,13-dione], the pEC50 in series [1] is 7.97. In series [2], the CC50 is above 200 nM.
In the case of `O=C1c2c(O)c(=O)ccn2N2CN1CCOC/C=C\c1cccc3c1[C@@H]2c1ccccc1CC3` (single isomer, unassigned) [Compound 83B, (13Z,23b*S)-6-hydroxy-9,10,12,18,19,23b-hexahydro-1,8-methanobenzo[4,5]cyclohepta[1,2,3-qr]pyrido[1,2-c][9,2,3,6]benzoxatriazacyclotetradecine-5,7-dione], the pEC50 in series [1] is 8.22. The CC50 in series [2] is above 200 nM.
For the molecule `O=C1c2c(O)c(=O)ccn2N2CN1CCCCOc1ccc(F)cc1[C@@H]2c1ccccc1` (single isomer, unassigned) [Compound 30B, (18*S)-2-fluoro-12-hydroxy-18-phenyl-6,7,8,9-tetrahydro-18H-10,17-methanobenzo[b]pyrido[1,2-f][1]oxa[5,6,9]triazacyclotridecine-11,13-dione], in series [1], the pEC50 is 7.82. In series [2], the CC50 was above 2000 nM.
For the molecule `COC[C@@H]1/C=C/COc2ccccc2[C@H](c2ccccc2)N2CN1C(=O)c1c(O)c(=O)ccn12` (single isomer, unassigned) [Compound 150B, (9*S,18*S,*E)-12-hydroxy-9-(methoxymethyl)-18-phenyl-6,9-dihydro-18H-10,17-methanobenzo[b]pyrido[1,2-f][1]oxa[5,6,9]triazacyclotridecine-11,13-dione], the pEC50 in series [1] was 5.49. The same molecule registered a cytotoxic concentration (CC50) in series [2] above 10000 nM.
The like results for `O=C1c2c(O)c(=O)ccn2N2CN1C[C@H]1C[C@@H]1COc1cccc3c1[C@H]2c1ccccc1SC3` [Compound 87BA, (1aS,11bS,20aS)-17-hydroxy-1a,2,6,11b,20,20a-hexahydro-1H-5,4-(epiprop[1]en[1]yl[3]ylidene)-12,19-methanobenzo[6,7]thiepino[4,5-c]cyclopropa[k]pyrido[1,2-f][1]oxa[5,6,9]triazacyclotridecine-16,18-dione] were, in that order, 8.40 and above 200 nM.
The like results for `CC(C)[C@@H]1/C=C/COc2cc(F)c(F)c3c2[C@@H](c2ccccc2SC3)N2CN1C(=O)c1c(O)c(=O)ccn12` (single isomer, unassigned) [Compound 169AB, (9*R,17a*S,*E)-24,25-difluoro-12-hydroxy-9-isopropyl-2,6,9,17a-tetrahydro-3,4-(epiprop[1]en[1]yl[3]ylidene)-10,17-methanobenzo[6,7]thiepino[4,5-c]pyrido[1,2-f][1]oxa[5,6,9]triazacyclotridecine-11,13-dione] were, in that order, below 7.30 and above 100 nM.
For `O=C1c2c(O)c(=O)ccn2N2CN1CC/C=C\COc1ccc(F)c3c1[C@@H]2c1ccccc1SC3` (single isomer, unassigned) [Compound 93A, (1*R,13Z)-20-fluoro-7-hydroxy-16-oxa-23-thia-2,3,10-triazahexacyclo[15.12.1.12,10.03,8.021,30.024,29]hentriaconta-4,7,13,17,19,21(30),24(29),25,27-nonaene-6], the pEC50 in series [1] was below 6.30. Further, the CC50 in series [2] is above 1000 nM.

As a reminder, the pEC50 is the EC50 on a negative log10 scale, so that one unit is a factor of ten. One may read the CC50 as the concentration giving 50% cytotoxicity. Higher therefore signals better tolerance by the cells.

For the origin of these results see US11312727B1, “Macrocyclic flu endonuclease inhibitors” (Janssen BioPharma, Inc., priority 2018, dated 2022).
